Data taken from paper PMC8244865, “Recruitment of phospholipase Cγ1 to the non-structural membrane protein pK15 of Kaposi Sarcoma-associated herpesvirus promotes its Src-dependent phosphorylation” (PLoS Pathogens, 2021).

B1: pK15 CT^WT: pK15 cytoplasmic tail fused to GST at its N-terminal end, phosphorylated in vitro by Src (protein)
chain: SQLLNEVELQEVNRDPPNVFGYASILVSGAEESREPSPQPDQSGMSILRVDGGSAFRIDTAQAATQPTDDLYEEVLFPRN
modifications: tyrosine-phosphorylated in vitro by Src; sites not stated for this construct; left off: GST, N-terminal, kept

Experiments:
Assay type in all cases: binding
PLCγ1 nSH2 = biological target: T1, PLCγ1 nSH2 (Homo sapiens, UniProt P19174); assay: 1H,15N HSQC NMR titration, PLCγ1 nSH2; conditions: 1H-15N HSQC titration
T1 construct: nSH2 (545–662): 180 ± 43 nM; thioredoxin (pETM22 fusion, purified on Ni column) (N, cleaved yes); made in house; host or cells: E. coli BL21(DE3)
T1 sequence (P19174 545-662): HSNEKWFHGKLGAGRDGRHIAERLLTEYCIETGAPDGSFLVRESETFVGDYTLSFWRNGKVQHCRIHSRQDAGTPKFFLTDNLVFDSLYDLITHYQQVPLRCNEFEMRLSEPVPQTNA
Procedure: Fig 5 Affinity of pK15 peptide for PLCγ1 tSH2 or individual SH2 domains. (A) Binding curves of several PLCγ1 fragments in the presence of 200 nM 5,6-FAM-labelled pK15 (12mer). All measurements were performed in triplicate. […] (B and C) Overlay of ^1H,^15N HSQC NMR spectra of nSH2 (B) and cSH2 (C) alone (in yellow) and in the presence of 2 molar equivalents of the pK15 12mer peptide (blue), measured with a 600 MHz spectrometer at 298 K. The protein concentration was 100 μM and the buffer contained 100 mM MES, 150 mM NaCl, 3 mM TCEP, pH 6.5. (D and E) Excerpts from ^1H-^15N HSQC spectra of nSH2 (D) and cSH2 (E) upon addition of increasing concentrations of the pK15 12mer peptide.
Next, we used Nuclear Magnetic Resonance (NMR) spectroscopy to further compare the interaction of the phosphorylated pK15 12mer to the isolated nSH2 and cSH2 domains (Fig 5B–5E). We recorded ^1H-^15N HSQC spectra of each of the two domains in the presence of increasing concentrations of the pK15 peptide. In this spectrum, each N-H group of the protein gives rise to one peak. […] A change in the position of a few NMR peaks of the amide groups of the protein upon addition of the peptide is indicative of binding. […] The behavior of the NMR peaks during the titration series, however, differed for the two SH2 domains, indicating different binding kinetics. […] In light of this, it is conceivable that the preference of pK15 CT for cSH2 in vivo may be determined by kinetic rather than thermodynamic factors.
NMR experiments were recorded at 298 K on a 600-MHz Bruker Avance III-HD spectrometer equipped with an inverse HCN cryogenic probehead (nitrogen-cooled) and running Topspin 3.2 software. 2D ^15N-HSQC spectra were recorded using States-TPPI for frequency discrimination, with water suppression achieved via a combination of WATERGATE and water flip-back pulses to preserve the water magnetization. NMR data were processed in Topspin and analysed in CcpNmr Analysis v2.4 [74].

PLCγ1 cSH2 domain = assay: AlphaLISA, isolated PLCγ1 cSH2; conditions: phosphorylated, 300 nM each protein, domain tested individually
Procedure: (§1) Fig 4 The PLCγ1 cSH2 domain is required for the binding of PLCγ1 to phosphorylated pK15 in vitro and may serve as a dominant-negative inhibitor. GST-fused pK15 cytoplasmic tail WT (A), or its truncated mutant N2 [51] (B), were phosphorylated in vitro by 2xStrep-Src and an AlphaLISA was performed with the indicated His-tagged fragments of PLCγ1. Mean and standard deviation from at least two independent experiments with two technical replicates each are depicted. GST fusion proteins of the N1 (C) or N2 (D) truncation mutants of the pK15 cytoplasmic tail were phosphorylated in vitro by 2xStrep-Src and their interaction with recombinant purified PLCγ1 tSH2 (tandem SH2) or SA (γ-specific array) domains was measured by AlphaLISA in the presence of increasing concentrations (300 nM, 600 nM, 900 nM, 1200 nM) of the purified PLCγ1 cSH2. […] After 48h lysates were collected and analysed by Western blot using an antibody to PLCγ1 pY^783 to assess the level of PLCγ1 phosphorylation. (F) The intensities of the pPLCγ1 bands shown in panel E were quantified by densitometry, normalized to the values obtained with the empty vector (EV) in the presence of pK15, and plotted as relative values. […]
(§2) His-tagged PLCγ1 (SA, tSH2 or the isolated SH2 domains) was incubated at room temperature with GST-tagged K15P or its mutants for 1 hour. […] Emission at 615 nm was detected on BioTek Synergy 2 plate reader.

PLCγ1 nSH2 domain = assay: AlphaLISA, isolated PLCγ1 nSH2; conditions: phosphorylated; 300 nM each protein; domain tested individually
Procedure: as §1, §2

Row | Molecule | dissociation rate koff or association rate kon of nSH2–peptide complex relative to cSH2–peptide complex (PLCγ1 nSH2; 298 K, pH 6.5) | NMR exchange regime (PLCγ1 nSH2; 600 MHz, 298 K, 100 μM protein, 100 mM MES, 150 mM NaCl, 3 mM TCEP, pH 6.5) | affinity for nSH2 compared with cSH2 (NMR) (PLCγ1 nSH2; same saturating concentration of peptide, either nSH2 or cSH2) | interaction (AlphaLISA) (PLCγ1 cSH2 domain) | interaction (AlphaLISA) (PLCγ1 cSH2 domain; listed as pK15 CT^N2) | interaction (AlphaLISA) (PLCγ1 nSH2 domain)
1 | DDLpYEEVLFPRN [pK15 12mer, phosphorylated peptide representing the last 12 amino acids of pK15 CT (DDLp…)] | more than one order of magnitude slower than the corresponding rate of the cSH2–peptide complex | slow exchange regime | both domains bound the K15 peptide with similar affinity |  |  | 
2 | B1 |  |  |  | only the PLCγ1 cSH2 domain (and not the nSH2 domain) interacted | did interact with the tSH2 and cSH2 domains | not the nSH2 domain
